Laboratory results from PubChem BioAssay (NCI).
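Where inhibition never reached the appropriate level, the endpoint shown equals the highest concentration tested. Otherwise, values were interpolated linearly from a five-concentration, 48-hour dose response in 96-well plates. TGI: concentration producing complete growth inhibition.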

Assays:
Experiment in all cases: NCI-60 cell line screen, 48 h
UO-31 renal = system: UO-31 renal
K-562 leukemia = system: K-562 leukemia
OVCAR-3 ovarian = system: OVCAR-3 ovarian
NCI-H23 lung = system: NCI-H23 lung
MDA-N = system: MDA-N
HOP-92 NSCLC = system: HOP-92 NSCLC
MALME-3M melanoma = system: MALME-3M melanoma
T-47D breast = system: T-47D breast
U251 CNS = system: U251 CNS
A549 NSCLC = system: A549 NSCLC
HCT-116 colon = system: HCT-116 colon
PC-3 prostate = system: PC-3 prostate
SW-620 colon = system: SW-620 colon
EKVX NSCLC = system: EKVX NSCLC
NCI-H460 lung = system: NCI-H460 lung
SN12C renal = system: SN12C renal
UACC-257 melanoma = system: UACC-257 melanoma
MCF7 breast = system: MCF7 breast
SR leukemia = system: SR leukemia
HOP-62 NSCLC = system: HOP-62 NSCLC
MDA-MB-435 = system: MDA-MB-435
M14 melanoma = system: M14 melanoma
HCT-15 colon = system: HCT-15 colon
NCI/ADR-RES ovarian = system: NCI/ADR-RES ovarian
BT-549 breast = system: BT-549 breast
SF-295 CNS = system: SF-295 CNS
HT29 colon = system: HT29 colon
TK-10 renal = system: TK-10 renal
DU-145 prostate = system: DU-145 prostate
SK-MEL-28 melanoma = system: SK-MEL-28 melanoma
SF-539 CNS = system: SF-539 CNS
RXF 393 renal = system: RXF 393 renal
KM12 colon = system: KM12 colon
SF-268 CNS = system: SF-268 CNS
CCRF-CEM leukemia = system: CCRF-CEM leukemia
ACHN renal = system: ACHN renal
SNB-19 CNS = system: SNB-19 CNS
HL-60(TB) leukemia = system: HL-60(TB) leukemia
OVCAR-8 ovarian = system: OVCAR-8 ovarian
786-0 renal = system: 786-0 renal
RPMI-8226 leukemia = system: RPMI-8226 leukemia
COLO 205 colon = system: COLO 205 colon
OVCAR-5 ovarian = system: OVCAR-5 ovarian
NCI-H226 lung = system: NCI-H226 lung
HCC-2998 colon = system: HCC-2998 colon
IGROV1 ovarian = system: IGROV1 ovarian
SK-OV-3 ovarian = system: SK-OV-3 ovarian
OVCAR-4 ovarian = system: OVCAR-4 ovarian
CAKI-1 renal = system: CAKI-1 renal
SK-MEL-2 melanoma = system: SK-MEL-2 melanoma
SK-MEL-5 melanoma = system: SK-MEL-5 melanoma
MDA-MB-231 breast = system: MDA-MB-231 breast
A498 renal = system: A498 renal
UACC-62 melanoma = system: UACC-62 melanoma
LOX IMVI melanoma = system: LOX IMVI melanoma
NCI-H522 lung = system: NCI-H522 lung

## Cc1ccc(/S(Cc2ccccc2)=N\S(=O)(=O)c2ccc(C)cc2)cc1 (stereo unspecified)
UO-31 renal
  TGI: > 100 µM
K-562 leukemia
  TGI: > 100 µM
OVCAR-3 ovarian
  TGI: > 100 µM
NCI-H23 lung
  TGI: > 100 µM
MDA-N
  TGI: > 100 µM
HOP-92 NSCLC
  TGI: > 100 µM
MALME-3M melanoma
  TGI: > 100 µM
T-47D breast
  TGI: > 100 µM
U251 CNS
  TGI: > 100 µM
A549 NSCLC
  TGI: > 100 µM
HCT-116 colon
  TGI: > 100 µM
PC-3 prostate
  TGI: > 100 µM
SW-620 colon
  TGI: > 100 µM
EKVX NSCLC
  TGI: > 100 µM
NCI-H460 lung
  TGI: > 100 µM
SN12C renal
  TGI: > 100 µM
UACC-257 melanoma
  TGI: > 100 µM
MCF7 breast
  TGI: > 100 µM
SR leukemia
  TGI: > 100 µM
HOP-62 NSCLC
  TGI: > 100 µM
MDA-MB-435
  TGI: > 100 µM
M14 melanoma
  TGI: > 100 µM
HCT-15 colon
  TGI: > 100 µM
NCI/ADR-RES ovarian
  TGI: > 100 µM
BT-549 breast
  TGI: > 100 µM
SF-295 CNS
  TGI: > 100 µM
HT29 colon
  TGI: > 100 µM
TK-10 renal
  TGI: > 100 µM
DU-145 prostate
  TGI: > 100 µM
SK-MEL-28 melanoma
  TGI: > 100 µM
SF-539 CNS
  TGI: > 100 µM
RXF 393 renal
  TGI: > 100 µM
KM12 colon
  TGI: > 100 µM
SF-268 CNS
  TGI: > 100 µM
CCRF-CEM leukemia
  TGI: > 100 µM
ACHN renal
  TGI: > 100 µM
SNB-19 CNS
  TGI: > 100 µM
HL-60(TB) leukemia
  TGI: > 100 µM
OVCAR-8 ovarian
  TGI: > 100 µM
786-0 renal
  TGI: > 100 µM
RPMI-8226 leukemia
  TGI: > 100 µM
COLO 205 colon
  TGI: > 100 µM
OVCAR-5 ovarian
  TGI: > 100 µM
NCI-H226 lung
  TGI: > 100 µM

## CCOc1cc(-c2nc3cc(F)ccc3s2)ccc1O
UO-31 renal
  TGI: 25.8 µM
K-562 leukemia
  TGI: 25.9 µM
OVCAR-3 ovarian
  TGI: 35 µM
NCI-H23 lung
  TGI: 33.8 µM
HCC-2998 colon
  TGI: 41.6 µM
MDA-N
  TGI: 31.7 µM
MALME-3M melanoma
  TGI: 29.8 µM
IGROV1 ovarian
  TGI: 26 µM
T-47D breast
  TGI: 28.1 µM
U251 CNS
  TGI: 41.3 µM
A549 NSCLC
  TGI: 37 µM
SK-OV-3 ovarian
  TGI: 33 µM
OVCAR-4 ovarian
  TGI: 43.2 µM
HCT-116 colon
  TGI: 47.3 µM
PC-3 prostate
  TGI: 28.7 µM
SW-620 colon
  TGI: 40.7 µM
EKVX NSCLC
  TGI: 24.4 µM
NCI-H460 lung
  TGI: 34.9 µM
CAKI-1 renal
  TGI: 32.2 µM
SN12C renal
  TGI: 35.6 µM
UACC-257 melanoma
  TGI: 31 µM
MCF7 breast
  TGI: 23 µM
SK-MEL-2 melanoma
  TGI: 31.5 µM
SK-MEL-5 melanoma
  TGI: 32.2 µM
MDA-MB-231 breast
  TGI: 48.4 µM
A498 renal
  TGI: 26.2 µM
MDA-MB-435
  TGI: 33.8 µM
M14 melanoma
  TGI: 33.4 µM
HCT-15 colon
  TGI: 29 µM
NCI/ADR-RES ovarian
  TGI: 50.2 µM
BT-549 breast
  TGI: 30.2 µM
SF-295 CNS
  TGI: 35.2 µM
HT29 colon
  TGI: 34.8 µM
TK-10 renal
  TGI: 34 µM
UACC-62 melanoma
  TGI: 31.6 µM
DU-145 prostate
  TGI: 32.2 µM
SK-MEL-28 melanoma
  TGI: 43.1 µM
LOX IMVI melanoma
  TGI: 33.4 µM
SF-539 CNS
  TGI: 34.2 µM
RXF 393 renal
  TGI: 35.4 µM
KM12 colon
  TGI: 36 µM
NCI-H522 lung
  TGI: 24.2 µM
SF-268 CNS
  TGI: 31.2 µM
CCRF-CEM leukemia
  TGI: 18 µM
ACHN renal
  TGI: 29.9 µM
SNB-19 CNS
  TGI: 30.7 µM
OVCAR-8 ovarian
  TGI: 31.2 µM
786-0 renal
  TGI: 29.6 µM
RPMI-8226 leukemia
  TGI: 29.6 µM
COLO 205 colon
  TGI: 34.6 µM
OVCAR-5 ovarian
  TGI: 33.3 µM
NCI-H226 lung
  TGI: 34.2 µM
